Patent EP2468270A1, “(R)-2-(3-fluoro-4-phenylphenyl)propionic acid for use in the treatment of skin diseases” (GALENpharma GmbH, priority 2010, dated 2012)

How the values were obtained:
[1] = tested on: CGRP (Calcitonin Gene-Related Peptide); conditions: isolated rat skin; Averbeck et al. 2003; cited from earlier work
[2] = tested on: TGFß (transforming growth factor ß); assay: in vitro whole blood culture test system, zymosan activation: TGFß release; format: cell-based; conditions: human whole blood from 3 donors, 0.39-100 µg tarenflurbil/ml
Description: (§1) In an in vitro whole blood culture test system with human whole blood from 3 donors in each case, pre-incubation was carried out for 2 hours with 0.39, 1.56, 6.25, 25 and 100 µg tarenflurbil/ml whole blood before activation with zymosan (agent for producing sterile inflammations) took place. In total the following 37 parameters were measured which allow a broad overview of the reaction of the leucocytes under inflammatory conditions and thus also of the effects of tarenflurbil in such an environment: • 1. Amphiregulin • 2. Brain-derived neurotrophic factor (BDNF) • 3. Interleukin-1 alpha (IL-1α) • 4. IL-1β • 5. IL-1 receptor antagonist (IL-1Ra) • 6. IL-2 • 7. IL-3 • 8. IL-4 • 9. IL-5 • 10. IL-6 • 11. IL-7 • 12. IL-8 • 13. IL-10 • 14. IL-12, p40 subunit (IL-12p40) • 15. IL-12p70 • 16. IL-15 • 17. IL-17 • 18. IL-18 • 19. IL-23 • 20. Epiregulin • 21. Eotaxin (Eot.) • 22. Factor VII (F. VII) • 23. Granulocyte-monocytes colony stimulating factor (GM-CSF) • 24. Interferon gamma (IFNγ) • 25. Intercellular adhesion molecule-1 (ICAM-1) • 26. Monocyte chemoattractand protein-1 (MCP-1) • 27. Migration inhibitory protein-1 alpha (MIP-1α) • 28. MIP-1ß • 29. Matrix-metalloproteinase-2 (MMP-2) • 30. MMP-3 • 31. MMP-9 • 32. Oncostatin M (OSM) • 33. Stem-cell factor (SCF) • 34. […] (TGFα) • 35. Tumor necrosis factor alpha (TNFα) • 36. TNFß • 37. Vascular endothelial growth factor (VEGF)

[3] = in humans; Geisslinger et al., J Clin Pharmacol. 1996; cited from earlier work
[4] = tested on: Alzheimer's disease; conditions: extensive clinical Phase III studies; WO 2005/065069, Imbimbo 2009; cited from earlier work
[5] = tested on: BDNF (brain-derived neurotrophic factor); assay: in vitro whole blood culture test system, zymosan activation: BDNF release; format: cell-based; conditions: human whole blood from 3 donors, 0.39-100 µg tarenflurbil/ml
Description: In an in vitro whole blood culture test system with human whole blood from 3 donors in each case, pre-incubation was carried out for 2 hours with 0.39, 1.56, 6.25, 25 and 100 µg tarenflurbil/ml whole blood before activation with zymosan (agent for producing sterile inflammations) took place. In total the following 37 parameters were measured which allow a broad overview of the reaction of the leucocytes under inflammatory conditions and thus also of the effects of tarenflurbil in such an environment: • 1. […] Brain-derived neurotrophic factor (BDNF) • 3.

[6] = in mice; Leipold et al., Chirality 2004; cited from earlier work
[7] = tested on: UV erythema (sunburn); assay: UV erythema test, twice the minimum erythema dose (Example 2); format: in vivo, human; conditions: four test subjects, skin of the back, topical spray 0.1, 0.25, 1 and 4% (w/w), visual score and spectroscopic colour measurement, 0-48 hours
Description: The clinical-pharmacological studies of the following Examples 2 to 4 were carried out on healthy adults as model for non-immunological inflammation. In a preliminary test on the skin of the back involving a group of four test subjects, the "minimum erythema dose" following irradiation with a standardized daylight irradiation apparatus ([…]) was established. In the main test 8 areas of the skin of the back of each subject were irradiated with twice the "minimum erythema dose" and then treated with tarenflurbil spray with 0.1, 0.25, 1 and 4% tarenflurbil (w/w) as well as the associated placebo formulations and the comparison preparations (triamcinolone acetonide 0.2% (w/w); mometasone furoate solution 0.1% (w/w)). […] The effect of the test preparation with the highest tarenflurbil concentration was much more marked than with the comparison solutions triamcinolone acetonide 0.2% (w/w) or mometasone furoate 0.1% (w/w).

[8] = tested on: LT-C4/E4/D4; assay: in vitro whole blood culture test system, zymosan activation: leukotriene synthesis; format: cell-based; conditions: human whole blood, in allergy sufferers (Donor B), 0.39-100 µg tarenflurbil/ml, Figure 1
Description: In an in vitro whole blood culture test system with human whole blood from 3 donors in each case, pre-incubation was carried out for 2 hours with 0.39, 1.56, 6.25, 25 and 100 µg tarenflurbil/ml whole blood before activation with zymosan (agent for producing sterile inflammations) took place. […] A group determination of LT-C4/E4/D4 was carried out.

[9] = tested on: isolated rat skin; conditions: Pethö et al. 2001, the authors attributed the effect to S-flurbiprofen impurity; cited from earlier work
[10] = tested on: PGE2 (prostaglandin E2); assay: in vitro whole blood culture test system, zymosan activation: PGE2 formation; format: cell-based; conditions: human whole blood from 3 donors, 2 hours pre-incubation with 0.39, 1.56, 6.25, 25 and 100 µg tarenflurbil/ml, then zymosan
Description: as §1

SMILES: C[C@H](C(=O)O)c1ccc(-c2ccccc2)c(F)c1 [S-flurbiprofen]
- inhibition of the release of CGRP [1]: effective

SMILES: C[C@@H](C(=O)O)c1ccc(-c2ccccc2)c(F)c1 [tarenflurbil, (R)-2-(3-fluoro-4-phenylphenyl)propionic acid]
- TGFß (transforming growth factor ß) release [2]: dose-dependent reduction
- inhibition of the release of CGRP [1]: ineffective
- conversion to S-flurbiprofen [3]: not to be converted to S-flurbiprofen
- efficacy against Alzheimer's disease [4]: ineffective
- BDNF (brain-derived neurotrophic factor) release [5]: dose-dependent reduction
- bioinversion into S-flurbiprofen [6]: considerable bioinversion
- degree of erythema (UV erythema) [7]: dose-dependent reduction
- leukotriene synthesis (LT-C4/E4/D4) [8]: dose-dependent reduction
- effect on bradykinin-induced nociceptor sensitization to heat [9]: effective
- PGE2 (prostaglandin E2) formation [10]: dose-dependent reduction
